Experiment [1] concerns Mycobacterium sp. with deposit number of CGMCC No.21272. The experiment in a line: antibiotic susceptibility experiment. It is filed as cell-based. Conditions: strain CGMCC No.21272 (YT).
Experiment [2] has as its system Mycobacterium sp. with deposit number of CGMCC No.21273. The experiment in a line: antibiotic susceptibility experiment. The class given is cell-based. Conditions: strain CGMCC No.21273 (JD).

In the case of Penicillin, the Susceptibility degree entry in experiment [1] and in experiment [2] was “R” each time.
As for Cotrimoxazole, the Susceptibility degree entry in experiment [1] and in experiment [2] was “S” each time.
In the case of Romifloxacin, the Susceptibility degree entry in experiment [1] and in experiment [2] was “S” throughout.
As to `O=C1CN(/N=C/c2ccc([N+](=O)[O-])o2)C(=O)N1` [Furantoin], the Susceptibility degree result in experiment [1] and in experiment [2] was “R” in each case.
